Organism: Rattus norvegicus
Test: Open TG-GATES - Regimen: Daily Repeat
Type: toxicity, organism-based, Sprague-Dawley
Set-up: regimen Daily Repeat, gender Male, age 6 weeks
Settings: in vivo, po, 1000 mg/kg, route gavage, dose level High; for APTT / Bas / Eos / Fbg / Hb / Ht / Lym / MCH / MCHC / MCV / Mono / Neu / PT / Plat / RBC / Ret / WBC: tissue Blood; for KIDNEY_L / KIDNEY_R / KIDNEY_TOTAL: tissue Kidney; for LIVER: tissue Liver; for A/G / ALP / ALT / AST / BUN / CRE / Ca / Cl / DBIL / GLC / IP / K / LDH / Na / PL / RALB / TBIL / TC / TG / TP / gamma-GTP: tissue Plasma

O=C(OC[C@H]1O[C@@H](OC(=O)c2cc(O)c(O)c(OC(=O)c3cc(O)c(O)c(O)c3)c2)[C@H](OC(=O)c2cc(O)c(O)c(OC(=O)c3cc(O)c(O)c(O)c3)c2)[C@@H](OC(=O)c2cc(O)c(O)c(OC(=O)c3cc(O)c(O)c(O)c3)c2)[C@@H]1OC(=O)c1cc(O)c(O)c(OC(=O)c2cc(O)c(O)c(O)c2)c1)c1cc(O)c(O)c(OC(=O)c2cc(O)c(O)c(O)c2)c1 [TANNIC ACID]
TERMINAL_BW (72 h, time 3 day): 216.2 g
APTT (72 h, time 3 day): 17 s
Bas (72 h, time 3 day): 0%
Eos (72 h, time 3 day): 1.4%
Fbg (72 h, time 3 day): 234.6 mg/dL
Hb (72 h, time 3 day): 13.2 g/dL
Ht (72 h, time 3 day): 39.6%
Lym (72 h, time 3 day): 67.8%
MCH (72 h, time 3 day): 21.3 pg
MCHC (72 h, time 3 day): 33.3%
MCV (72 h, time 3 day): 63.8 fL
Mono (72 h, time 3 day): 10.2%
Neu (72 h, time 3 day): 20.6%
PT (72 h, time 3 day): 11.6 s
Plat (72 h, time 3 day): 110.8 x10_4/uL
RBC (72 h, time 3 day): 621.4 x10_4/ul
Ret (72 h, time 3 day): 7.9%
WBC (72 h, time 3 day): 91.3 x10_2/uL
KIDNEY_L (72 h, time 3 day): 1 g
KIDNEY_R (72 h, time 3 day): 1 g
KIDNEY_TOTAL (72 h, time 3 day): 1.9 g
LIVER (72 h, time 3 day): 10.6 g
A/G (72 h, time 3 day): 2
ALP (72 h, time 3 day): 818.6 IU/L
ALT (72 h, time 3 day): 42.6 IU/L
AST (72 h, time 3 day): 65.6 IU/L
BUN (72 h, time 3 day): 17.6 mg/dL
CRE (72 h, time 3 day): 0.4 mg/dL
Ca (72 h, time 3 day): 10.9 mg/dL
Cl (72 h, time 3 day): 104.2 meq/L
DBIL (72 h, time 3 day): 0.004 mg/dL
GLC (72 h, time 3 day): 204.4 mg/dL
IP (72 h, time 3 day): 7.9 mg/dL
K (72 h, time 3 day): 4.6 meq/L
LDH (72 h, time 3 day): 81.6 IU/L
Na (72 h, time 3 day): 139.4 meq/L
PL (72 h, time 3 day): 152.8 mg/dL
RALB (72 h, time 3 day): 3.6 g/dL
TBIL (72 h, time 3 day): 0.4 mg/dL
TC (72 h, time 3 day): 85 mg/dL
TG (72 h, time 3 day): 88.6 mg/dL
TP (72 h, time 3 day): 5.5 g/dL
gamma-GTP (72 h, time 3 day): 1.2 IU/L
TERMINAL_BW ([…], time 7 day): 253.1 g
TERMINAL_BW ([…], time 14 day): 291.2 g
TERMINAL_BW ([…], time 28 day): 390.8 g
APTT ([…], time 7 day): 17.3 s
Bas ([…], time 7 day): 0%
Eos ([…], time 7 day): 1%
Fbg ([…], time 7 day): 227.4 mg/dL
Hb ([…], time 7 day): 13.3 g/dL
Ht ([…], time 7 day): 40%
Lym ([…], time 7 day): 72%
MCH ([…], time 7 day): 21.8 pg
MCHC ([…], time 7 day): 33.3%
MCV ([…], time 7 day): 65.5 fL
Mono ([…], time 7 day): 6%
Neu ([…], time 7 day): 21.2%
PT ([…], time 7 day): 11.3 s
Plat ([…], time 7 day): 121.1 x10_4/uL
RBC ([…], time 7 day): 610.4 x10_4/ul
Ret ([…], time 7 day): 7.4%
WBC ([…], time 7 day): 103.9 x10_2/uL
APTT ([…], time 14 day): 16.4 s
Bas ([…], time 14 day): 0%
Eos ([…], time 14 day): 1%
Fbg ([…], time 14 day): 241.2 mg/dL
Hb ([…], time 14 day): 14.5 g/dL
Ht ([…], time 14 day): 43.2%
Lym ([…], time 14 day): 74.8%
MCH ([…], time 14 day): 20.5 pg
MCHC ([…], time 14 day): 33.4%
MCV ([…], time 14 day): 61.3 fL
Mono ([…], time 14 day): 9.4%
Neu ([…], time 14 day): 14.8%
PT ([…], time 14 day): 11.5 s
Plat ([…], time 14 day): 121.1 x10_4/uL
RBC ([…], time 14 day): 705.6 x10_4/ul
Ret ([…], time 14 day): 4.7%
WBC ([…], time 14 day): 116.2 x10_2/uL
APTT ([…], time 28 day): 16 s
Bas ([…], time 28 day): 0%
Eos ([…], time 28 day): 1.6%
Fbg ([…], time 28 day): 225.2 mg/dL
Hb ([…], time 28 day): 14.4 g/dL
Ht ([…], time 28 day): 43%
Lym ([…], time 28 day): 78.2%
MCH ([…], time 28 day): 19.4 pg
MCHC ([…], time 28 day): 33.5%
MCV ([…], time 28 day): 57.9 fL
Mono ([…], time 28 day): 7.6%
Neu ([…], time 28 day): 12.6%
PT ([…], time 28 day): 11.6 s
Plat ([…], time 28 day): 118.3 x10_4/uL
RBC ([…], time 28 day): 741.4 x10_4/ul
Ret ([…], time 28 day): 3.1%
WBC ([…], time 28 day): 130.6 x10_2/uL
KIDNEY_L ([…], time 7 day): 1.1 g
KIDNEY_R ([…], time 7 day): 1.1 g
KIDNEY_TOTAL ([…], time 7 day): 2.2 g
KIDNEY_L ([…], time 14 day): 1.1 g
KIDNEY_R ([…], time 14 day): 1.1 g
KIDNEY_TOTAL ([…], time 14 day): 2.3 g
KIDNEY_L ([…], time 28 day): 1.4 g
KIDNEY_R ([…], time 28 day): 1.4 g
KIDNEY_TOTAL ([…], time 28 day): 2.8 g
LIVER ([…], time 7 day): 12.1 g
LIVER ([…], time 14 day): 12.9 g
LIVER ([…], time 28 day): 16.8 g
A/G ([…], time 7 day): 1.7
ALP ([…], time 7 day): 897.4 IU/L
ALT ([…], time 7 day): 34.2 IU/L
AST ([…], time 7 day): 60 IU/L
BUN ([…], time 7 day): 16.2 mg/dL
CRE ([…], time 7 day): 0.5 mg/dL
Ca ([…], time 7 day): 10.8 mg/dL
Cl ([…], time 7 day): 103.2 meq/L
DBIL ([…], time 7 day): 0.012 mg/dL
GLC ([…], time 7 day): 200.4 mg/dL
IP ([…], time 7 day): 8 mg/dL
K ([…], time 7 day): 4.6 meq/L
LDH ([…], time 7 day): 93.4 IU/L
Na ([…], time 7 day): 136.6 meq/L
PL ([…], time 7 day): 125.4 mg/dL
RALB ([…], time 7 day): 3.7 g/dL
TBIL ([…], time 7 day): 0.4 mg/dL
TC ([…], time 7 day): 62.6 mg/dL
TG ([…], time 7 day): 91 mg/dL
TP ([…], time 7 day): 5.9 g/dL
gamma-GTP ([…], time 7 day): 1 IU/L
A/G ([…], time 14 day): 1.9
ALP ([…], time 14 day): 720.4 IU/L
ALT ([…], time 14 day): 35.4 IU/L
AST ([…], time 14 day): 58.6 IU/L
BUN ([…], time 14 day): 17.8 mg/dL
CRE ([…], time 14 day): 0.5 mg/dL
Ca ([…], time 14 day): 10.7 mg/dL
Cl ([…], time 14 day): 104.6 meq/L
DBIL ([…], time 14 day): 0.024 mg/dL
GLC ([…], time 14 day): 204.2 mg/dL
IP ([…], time 14 day): 8.3 mg/dL
K ([…], time 14 day): 4.6 meq/L
LDH ([…], time 14 day): 87.6 IU/L
Na ([…], time 14 day): 140.4 meq/L
PL ([…], time 14 day): 145.2 mg/dL
RALB ([…], time 14 day): 3.8 g/dL
TBIL ([…], time 14 day): 0.4 mg/dL
TC ([…], time 14 day): 70.4 mg/dL
TG ([…], time 14 day): 115.8 mg/dL
TP ([…], time 14 day): 5.8 g/dL
gamma-GTP ([…], time 14 day): 0.8 IU/L
A/G ([…], time 28 day): 1.8
ALP ([…], time 28 day): 573 IU/L
ALT ([…], time 28 day): 31.6 IU/L
AST ([…], time 28 day): 54 IU/L
BUN ([…], time 28 day): 20.4 mg/dL
CRE ([…], time 28 day): 0.5 mg/dL
Ca ([…], time 28 day): 10.7 mg/dL
Cl ([…], time 28 day): 105.8 meq/L
DBIL ([…], time 28 day): 0.006 mg/dL
GLC ([…], time 28 day): 199.2 mg/dL
IP ([…], time 28 day): 7.8 mg/dL
K ([…], time 28 day): 4.5 meq/L
LDH ([…], time 28 day): 87.8 IU/L
Na ([…], time 28 day): 139 meq/L
PL ([…], time 28 day): 152.6 mg/dL
RALB ([…], time 28 day): 3.8 g/dL
TBIL ([…], time 28 day): 0.4 mg/dL
TC ([…], time 28 day): 73.4 mg/dL
TG ([…], time 28 day): 139.4 mg/dL
TP ([…], time 28 day): 6 g/dL
gamma-GTP ([…], time 28 day): 1 IU/L

Reference: ChEMBL document CHEMBL3885861, “Open TG-GATES”
